Source: US12358912B2 (ASCENTAGE PHARMA (SUZHOU) CO., LTD., priority 2020, dated 2025)

What was measured:
Assay type in all cases: physicochemical
[1] = Suspension competitive agitation test between anhydrous crystalline forms I, III, XV, XVII and XVIII (IPA, MTBE; solid tested by XRPD); settings: solid by XRPD after suspension stirring 3 days
[2] = Stability test (1): physical and chemical stability by XRPD and HPLC at 80° C., 40° C./75% RH and 25° C./60% RH; settings: for chemical stability: degradation (HPLC purity) / physical stability: crystalline form (XRPD): 80° C. (sealed) 24 hours, 40° C./75% RH and 25° C./60% RH (open) 1 week; for purity (area %): HPLC
Description: (sealed) for 24 hours, at 40° C./75% RH and 25° C./60% RH (open) for 1 week, respectively. The physical and chemical stability of the samples were tested by XRPD and HPLC.

[3] = Suspension competitive test between Crystalline Form III and Crystalline Form XVIII (EtOAc, MTBE, n-butyl alcohol; solid tested by XRPD); settings: for Crystalline Form: solid by XRPD after suspension stirring 7 days; for interconversion rate of crystalline form III and crystalline form XVIII: suspension stirring 7 days
[4] = Evaluation of hygroscopicity by Dynamic Moisture Sorption Analyzer (DVS), with XRPD before and after DVS; settings: for hygroscopicity (in words) / moisture adsorption: 80% RH/25° C.; for moisture adsorption: humidity cycle 0% RH-95% RH-0% RH; for crystalline form after the DVS test (XRPD): XRPD of the sample after the DVS test
[5] = Stability test (2): salt crystalline forms at high temperature, high humidity and light, detection by HPLC and XRPD; settings: for total impurities (%): HPLC
[6] = 60° C. (open), 5 days, listed as XXXVI
[7] = 60° C. (open), 10 days, listed as XXXVI
[8] = 60° C. (open), 30 days, listed as XXXVI
[9] = light (RT, white light 6980 lux, UV 282 μW/cm2), 5 days, listed as XXXVI
[10] = light (RT, white light 6980 lux, UV 282 μW/cm2), 10 days, listed as XXXVI

SMILES: O=C(NS(=O)(=O)c1ccc(NC[C@H]2COCCO2)c([N+](=O)[O-])c1)c1ccc(N2CCN(CC3=C(c4ccc(Cl)cc4)CC4(CCC4)CC3)CC2)cc1Oc1cnc2[nH]ccc2c1 [listing 1 of 2 here]
- Crystalline Form ([1]; IPA, 50° C.): Crystalline Form III
- Crystalline Form ([1]; IPA, 70° C.): Crystalline Form III
- Crystalline Form ([1]; IPA, room temperature): Crystalline Form III
- Crystalline Form ([1]; MTBE, 50° C.): Crystalline Form III
- Crystalline Form ([1]; MTBE, 70° C.): Crystalline Form III
- Crystalline Form ([1]; MTBE, room temperature): Crystalline Form III

SMILES: O=C(NS(=O)(=O)c1ccc(NCC2COCCO2)c([N+](=O)[O-])c1)c1ccc(N2CCN(CC3=C(c4ccc(Cl)cc4)CC4(CCC4)CC3)CC2)cc1Oc1cnc2[nH]ccc2c1 (stereo not shown) [amorphous form XXV]
- chemical stability: degradation (HPLC purity) [2]: did not degrade
- physical stability: crystalline form (XRPD) [2]: did not change
- purity (area %) ([2]; 25° C./60% RH 1 week (open)): 99.42 area %
- purity (area %) ([2]; 40° C./75% RH 1 week (open)): 99.45 area %
- purity (area %) ([2]; 80° C. 24 hours (sealed)): 99.42 area %
- purity (area %) ([2]; starting point): 99.43 area %

SMILES: O=C(NS(=O)(=O)c1ccc(NC[C@H]2COCCO2)c([N+](=O)[O-])c1)c1ccc(N2CCN(CC3=C(c4ccc(Cl)cc4)CC4(CCC4)CC3)CC2)cc1Oc1cnc2[nH]ccc2c1 [listing 2 of 2 here]
- Crystalline Form ([3]; EtOAc, 50° C.): Crystalline Form III
- Crystalline Form ([3]; EtOAc, 70° C.): Crystalline Form III
- Crystalline Form ([3]; EtOAc, room temperature): Crystalline Form V
- Crystalline Form ([3]; MTBE, 50° C.): Crystalline Form III
- Crystalline Form ([3]; MTBE, 70° C.): Crystalline Form III
- Crystalline Form ([3]; n-Butyl alcohol, 50° C.): Crystalline Form III
- Crystalline Form ([3]; n-Butyl alcohol, 70° C.): Crystalline Form III

SMILES: O=C(NS(=O)(=O)c1ccc(NCC2COCCO2)c([N+](=O)[O-])c1)c1ccc(N2CCN(CC3=C(c4ccc(Cl)cc4)CC4(CCC4)CC3)CC2)cc1Oc1cnc2[nH]ccc2c1 (single isomer, unassigned) [crystalline form III]
- chemical stability: degradation (HPLC purity) [2]: did not degrade
- physical stability: crystalline form (XRPD) [2]: did not change
- purity (area %) ([2]; 25° C./60% RH 1 week (open)): 98.66 area %
- purity (area %) ([2]; 40° C./75% RH 1 week (open)): 98.67 area %
- purity (area %) ([2]; 80° C. 24 hours (sealed)): 98.64 area %
- purity (area %) ([2]; starting point): 98.65 area %
- hygroscopicity (in words) ([4]; DVS): slight hygroscopicity
- moisture adsorption ([4]; DVS): 0.9%
- crystalline form after the DVS test (XRPD) [4]: did not change
- stability of crystalline form III and crystalline form XVIII relative to each other ([3]; room temperature): similar
- interconversion rate of crystalline form III and crystalline form XVIII ([3]; room temperature): relatively slow

SMILES: O=C(NS(=O)(=O)c1ccc(NCC2COCCO2)c([N+](=O)[O-])c1)c1ccc(N2CCN(CC3=C(c4ccc(Cl)cc4)CC4(CCC4)CC3)CC2)cc1Oc1cnc2[nH]ccc2c1 (single isomer, unassigned) [crystalline form XVIII]
- chemical stability: degradation (HPLC purity) [2]: did not degrade
- physical stability: crystalline form (XRPD) [2]: did not change
- purity (area %) ([2]; 25° C./60% RH 1 week (open)): 99.60 area %
- purity (area %) ([2]; 40° C./75% RH 1 week (open)): 99.61 area %
- purity (area %) ([2]; 80° C. 24 hours (sealed)): 99.61 area %
- purity (area %) ([2]; starting point): 99.48 area %
- hygroscopicity (in words) ([4]; DVS): almost no moisture absorption
- moisture adsorption ([4]; DVS): 0.04%
- crystalline form after the DVS test (XRPD) [4]: did not change
- stability of crystalline form III and crystalline form XVIII relative to each other ([3]; room temperature): similar
- interconversion rate of crystalline form III and crystalline form XVIII ([3]; room temperature): relatively slow

SMILES: O=C(NS(=O)(=O)c1ccc(NCC2COCCO2)c([N+](=O)[O-])c1)c1ccc(N2CCN(CC3=C(c4ccc(Cl)cc4)CC4(CCC4)CC3)CC2)cc1Oc1cnc2[nH]ccc2c1 (stereo not shown) [citrate crystalline Form XXXVI]
- XPRD [5, 6]: changed
- XPRD [5, 7]: changed
- XPRD [5, 8]: changed
- total impurities (%) [5, 6]: 0.97%
- total impurities (%) [5, 7]: 1.01%
- total impurities (%) [5, 8]: 0.98%
- total impurities (%) ([5]; RT/75% RH (open), 5 days, listed as XXXVI): 0.95%
- total impurities (%) ([5]; RT/75% RH (open), 10 days, listed as XXXVI): 0.95%
- total impurities (%) ([5]; RT/75% RH (open), 30 days, listed as XXXVI): 1.00%
- total impurities (%) [5, 9]: 1.06%
- total impurities (%) [5, 10]: 1.36%
- total impurities (%) ([5]; the initial sample, 0 day, listed as XXXVI): 1.02%
- XPRD [5, 9]: no change
- XPRD [5, 10]: no change
- XPRD ([5]; the initial sample, 0 day): XXXVI
- weight increase by hygroscopy (80% RH) ([4]; DVS, 80% RH, listed as XXXVI): 2.00%
- XRPD change ([4]; XRPD before and after DVS): no change
